Laboratory results as given in patent publication US10562898B2, “Substituted benzenesulfonamides as inhibitors of alpha-4 beta-7 integrin activity” (EA PHARMA CO., LTD., priority 2016, dated 2020).

These compounds were tested against T1, α4β1 integrin (Homo sapiens, UniProt P05556+P13612) (assay: VCAM-1/α4β1 integrin binding inhibitory activity evaluation test (Jurkat cells binding to VCAM-1/Fc)). Settings: recombinant human VCAM-1/Fc.
T1 construct: a cell line Jurkat, which is known to express α4β1 integrin; endogenous in cells; host or cells: Jurkat (human T cell line)
T1 sequence (P13612 34-1032): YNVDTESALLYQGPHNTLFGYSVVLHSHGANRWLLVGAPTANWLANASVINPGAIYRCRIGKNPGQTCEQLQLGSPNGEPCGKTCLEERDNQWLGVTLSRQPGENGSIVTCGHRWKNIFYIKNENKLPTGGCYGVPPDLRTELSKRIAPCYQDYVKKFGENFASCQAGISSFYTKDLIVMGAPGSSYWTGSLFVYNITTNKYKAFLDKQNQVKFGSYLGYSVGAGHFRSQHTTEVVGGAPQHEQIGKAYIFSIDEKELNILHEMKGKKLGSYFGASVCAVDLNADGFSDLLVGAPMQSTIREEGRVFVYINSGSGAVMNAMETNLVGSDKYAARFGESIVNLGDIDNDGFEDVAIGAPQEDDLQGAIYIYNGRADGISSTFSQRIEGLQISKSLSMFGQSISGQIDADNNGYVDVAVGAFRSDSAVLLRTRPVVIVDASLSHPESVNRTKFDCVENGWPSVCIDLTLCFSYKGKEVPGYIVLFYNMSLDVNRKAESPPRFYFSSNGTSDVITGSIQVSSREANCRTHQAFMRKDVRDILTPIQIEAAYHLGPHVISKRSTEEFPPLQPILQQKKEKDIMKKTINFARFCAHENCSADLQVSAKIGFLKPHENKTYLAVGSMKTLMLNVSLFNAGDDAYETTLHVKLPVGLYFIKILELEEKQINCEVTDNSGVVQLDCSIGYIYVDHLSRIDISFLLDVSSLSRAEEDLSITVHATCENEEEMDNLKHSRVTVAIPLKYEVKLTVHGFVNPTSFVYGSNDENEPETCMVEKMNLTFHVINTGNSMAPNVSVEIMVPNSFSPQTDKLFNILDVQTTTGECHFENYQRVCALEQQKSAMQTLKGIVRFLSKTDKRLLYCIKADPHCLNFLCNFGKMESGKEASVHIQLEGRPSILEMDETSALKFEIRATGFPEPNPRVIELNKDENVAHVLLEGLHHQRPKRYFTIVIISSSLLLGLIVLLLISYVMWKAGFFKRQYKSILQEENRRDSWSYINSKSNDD
T1 sequence (P05556 21-798): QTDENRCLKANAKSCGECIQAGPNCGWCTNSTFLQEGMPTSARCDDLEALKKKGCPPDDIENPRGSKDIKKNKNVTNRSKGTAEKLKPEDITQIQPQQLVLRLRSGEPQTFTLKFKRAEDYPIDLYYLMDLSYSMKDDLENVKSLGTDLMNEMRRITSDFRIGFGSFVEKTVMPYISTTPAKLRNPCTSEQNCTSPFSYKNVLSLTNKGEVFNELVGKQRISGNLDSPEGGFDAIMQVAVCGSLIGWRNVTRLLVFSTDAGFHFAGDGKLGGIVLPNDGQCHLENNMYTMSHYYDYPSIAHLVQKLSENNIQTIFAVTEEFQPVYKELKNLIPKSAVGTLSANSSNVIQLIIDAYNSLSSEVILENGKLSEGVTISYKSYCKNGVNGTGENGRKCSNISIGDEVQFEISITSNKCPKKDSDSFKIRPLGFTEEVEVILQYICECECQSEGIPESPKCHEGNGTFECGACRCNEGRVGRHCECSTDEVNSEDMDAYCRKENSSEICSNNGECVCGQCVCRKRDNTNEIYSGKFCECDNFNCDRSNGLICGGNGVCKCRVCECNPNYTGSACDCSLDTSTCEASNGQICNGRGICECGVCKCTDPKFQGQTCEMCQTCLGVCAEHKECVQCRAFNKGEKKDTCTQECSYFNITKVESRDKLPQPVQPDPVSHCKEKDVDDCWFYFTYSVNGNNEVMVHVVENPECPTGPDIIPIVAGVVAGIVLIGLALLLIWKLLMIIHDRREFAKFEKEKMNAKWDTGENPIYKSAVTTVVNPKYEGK
Assay type: cell-based
Description: (1) VCAM-1/α4β1 Integrin Binding Inhibitory Activity Evaluation Test
Each test substance was measured in terms of an ability to inhibit the VCAM-1 binding of a human T cell line, namely, a cell line Jurkat, which is known to express α4β1 integrin.
A solution of recombinant human VCAM-1/Fc (R&D Systems, Inc.) (1 μg/mL) diluted with a buffer A (carbonate buffer, pH 9.6) was placed in an amount of 50 μL/well in a 96-well microtiter plate, followed by incubation at 4° C. overnight. After the plate was washed with PBS once, 150 μL/well of Block Ace (Snow Brand Milk Products Co., Ltd.) was added, followed by incubation at room temperature for 2 hours. After removal, the plate was washed with PBS once.
Then, 100 μL of the Jurkat cells (2×10^6 cells/mL) and 100 μL of the test substance at each of various concentrations diluted with a binding buffer (DMEM containing 40 mM HEPES, 0.2% BSA, and 4 mM MnCl2) were added to the plate coated with the VCAM-1/Fc (5×10^5 cells/well), followed by incubation at 30° C. for 15 to 60 minutes. After the cells were bound to the wells, the plate was washed with PBS to remove unbound cells. A buffer C (PBS containing 1.5% Triton X-100) was added in an amount 50 μL/well to the plate to lyse the bound Jurkat cells. After 30 μL of a substrate buffer (Promega, CytoTox 96 Non-Radioactive Cytotoxicity Assay) was added to 30 μL of the cell lysate, a reaction was allowed to proceed at room temperature in the dark for 30 minutes. After 30 μL of a stop solution (Promega, CytoTox 96 Non-Radioactive Cytotoxicity Assay) was added to each, and then an absorbance at 490 nm was measured using a plate reader. The absorbance obtained here represents a detection result of an activity of lactate dehydrogenase (LDH) eluted in the supernatant of each well, that is, the absorbance is proportional to the number of Jurkat cells bound to the VCAM-1 and thus remaining on the plate. The test was performed in duplicate. Provided that the absorbance of a well containing no test substance was 100%, a cell binding rate with the test substance at each of the various concentrations was figured out, and a concentration IC50 which brought about 50% binding inhibition was calculated.

SMILES | IC50 [µM]
Cc1cn(C)c(=O)n(-c2ccc(C[C@H](NC(=O)c3cc(F)c(NS(=O)(=O)c4ccc(NC(=O)C(C)(C)C)cc4)cc3F)C(=O)O)cn2)c1=O [Compound A54] | 29
Cc1c(C)n(C(C)C)c(=O)n(-c2ccc(C[C@H](NC(=O)c3cc(F)c(NS(=O)(=O)c4ccc(NC(=O)C(C)(C)C)cc4)cc3F)C(=O)O)cc2)c1=O [Compound A48] | 11
Cc1cn(C)c(=O)n(-c2ccc(C[C@H](NC(=O)c3cc(F)c(NS(=O)(=O)c4ccc(NC(=O)C(C)(C)C)s4)cc3F)C(=O)O)cn2)c1=O [Compound A73] | 21
CN1CCC(=O)N(c2ccc(C[C@H](NC(=O)c3cc(F)c(NS(=O)(=O)c4ccc(NC(=O)C(C)(C)C)cc4)cc3F)C(=O)O)cn2)C1=O [Compound A75, (2S)-2-[2,5-difluoro-4-[(4-pivalamidophenyl)sulfonamide]benzamido]-3-[6-(3-methyl-2,6-dioxotetrahydropyrimidin-1(2H)-yl)pyridin-3-yl]propanoic acid] | 32
Cn1c(=O)n(-c2ccc(C[C@H](NC(=O)c3cc(F)c(NS(=O)(=O)c4ccc(NC(=O)C5(c6ccccc6)CC5)cc4)cc3F)C(=O)O)cn2)c(=O)c2ccncc21 [Compound A29] | 12
Cc1cn(C)c(=O)n(-c2ccc(C[C@H](NC(=O)c3cc(F)c(NS(=O)(=O)c4ccc(NC(=O)C5CCCC5)cc4)cc3F)C(=O)O)cn2)c1=O [Compound A65] | 21
Cc1cn(C)c(=O)n(-c2ccc(C[C@H](NC(=O)c3cc(F)c(NS(=O)(=O)c4ccc5c(NC(=O)C(C)(C)C)c[nH]c5c4)cc3F)C(=O)O)cn2)c1=O [Compound A74] | 7.4
Cc1cn(C)c(=O)n(-c2ccc(C[C@H](NC(=O)c3cc(F)c(NS(=O)(=O)c4ccc(NC(=O)C(C)(C)C(F)(F)F)cc4)cc3F)C(=O)O)cn2)c1=O [Compound A58] | 14
Cc1cn(C)c(=O)n(-c2ccc(C[C@H](NC(=O)c3cc(F)c(NS(=O)(=O)c4c[nH]c5cc(NC(=O)C(C)(C)C)ccc45)cc3F)C(=O)O)cn2)c1=O [Compound A77] | 7.1
Cn1ccc(=O)n(-c2ccc(C[C@H](NC(=O)c3cc(F)c(NS(=O)(=O)c4ccc(NC(=O)C5CCCC5)cc4)cc3F)C(=O)O)cn2)c1=O [Compound A64] | > 31.2
Cc1cn(C)c(=O)n(-c2ccc(C[C@H](NC(=O)c3cc(F)c(NS(=O)(=O)c4ccc(NC(=O)C(C)(C)C)cc4)cc3F)C(=O)O)nc2)c1=O [Compound A69] | 13
CCC(CC)C(=O)Nc1ccc(S(=O)(=O)Nc2cc(F)c(C(=O)N[C@@H](Cc3ccc(-n4c(=O)ccn(C)c4=O)nc3)C(=O)O)cc2F)cc1 [Compound A61] | > 31.2
Cc1cn(C)c(=O)n(-c2ccc(C[C@H](NC(=O)c3cc(F)c(NS(=O)(=O)c4cc5cc(NC(=O)C(C)(C)C)ccc5[nH]4)cc3F)C(=O)O)cn2)c1=O [Compound A76] | 25
Cn1ccc(=O)n(-c2ccc(C[C@H](NC(=O)c3cc(F)c(NS(=O)(=O)c4ccc(NC(=O)C(C)(C)C(F)(F)F)cc4)cc3F)C(=O)O)cn2)c1=O [Compound A57] | 25
Cc1cc(=O)n(-c2ccc(C[C@H](NC(=O)c3cc(F)c(NS(=O)(=O)c4ccc(NC(=O)C(C)(C)C)cc4)cc3F)C(=O)O)cn2)c(=O)n1C [Compound A45] | 10

Further lines, results first:

IC50 [µM] | SMILES
1 | Cn1c2c(c(=O)n(-c3ccc(C[C@H](NC(=O)c4cc(F)c(NS(=O)(=O)c5ccc(NC(=O)C(C)(C)C)cc5)cc4F)C(=O)O)cc3)c1=O)COCC2 [Compound A33]
2 | Cn1c(=O)n(-c2ccc(C[C@H](NC(=O)c3cc(F)c(NS(=O)(=O)c4ccc(NC(=O)c5ccncc5)cc4)cc3F)C(=O)O)cc2)c(=O)c2ccncc21 [Compound A7]
2.7 | Cc1c(C)n(C)c(=O)n(-c2ccc(C[C@H](NC(=O)c3cc(F)c(NS(=O)(=O)c4ccc(NC(=O)C5(c6ccccc6)CC5)cc4)cc3F)C(=O)O)cc2)c1=O [Compound A30]
1.3 | COC1(C(=O)Nc2ccc(S(=O)(=O)Nc3cc(F)c(C(=O)N[C@@H](Cc4ccc(-n5c(=O)c(C)c(C)n(C)c5=O)cc4)C(=O)O)cc3F)cc2)CC1 [Compound A17]
0.91 | Cn1c2c(c(=O)n(-c3ccc(C[C@H](NC(=O)c4cc(F)c(NS(=O)(=O)c5ccc(NC(=O)C(C)(C)C)cc5)cc4F)C(=O)O)cc3)c1=O)CCOC2 [Compound A27]
0.82 | Cn1c(=O)n(-c2ccc(C[C@H](NC(=O)c3cc(F)c(NS(=O)(=O)c4ccc(NC(=O)C5(O)CC5)cc4)cc3F)C(=O)O)cc2)c(=O)c2ccncc21 [Compound A23]
4 | CN1C(=O)N(c2ccc(S(=O)(=O)Nc3cc(F)c(C(=O)N[C@@H](Cc4ccc(-n5c(=O)c6ccncc6n(C)c5=O)nc4)C(=O)O)cc3F)cc2)C(=O)C1(C)C [Compound A38]
0.16 | Cn1c(=O)n(-c2ccc(C[C@H](NC(=O)c3cc(F)c(NS(=O)(=O)c4ccc(NC(=O)C(C)(C)C)s4)cc3F)C(=O)O)cc2)c(=O)c2ccncc21 [Compound A9]
0.37 | Cc1c(C)n(C)c(=O)n(-c2ccc(C[C@H](NC(=O)c3cc(F)c(NS(=O)(=O)c4ccc(NC(=O)C(C)(C)C)cn4)cc3F)C(=O)O)cc2)c1=O [Compound A19]
1.8 | Cc1cc(=O)n(-c2ccc(C[C@H](NC(=O)c3cc(F)c(NS(=O)(=O)c4ccc(NC(=O)C(C)(C)C)cc4)cc3F)C(=O)O)cc2)c(=O)n1C [Compound A46]
7.1 | Cc1c(C)n(C)c(=O)n(-c2ccc(C[C@H](NC(=O)c3cc(F)c(NS(=O)(=O)c4cccc(NC(=O)C(C)(C)C)c4)cc3F)C(=O)O)cn2)c1=O [Compound A50]
0.4 | Cc1c(C)n(C)c(=O)n(-c2ccc(C[C@H](NC(=O)c3cc(F)c(NS(=O)(=O)c4ccc(NC(=O)C(C)(C)C)s4)cc3F)C(=O)O)cc2)c1=O [Compound A10]
2.5 | CCC(CC)C(=O)Nc1ccc(S(=O)(=O)Nc2cc(F)c(C(=O)N[C@@H](Cc3ccc(-n4c(=O)c(C)c(C)n(C)c4=O)cc3)C(=O)O)cc2F)cc1 [Compound A4]
4.6 | Cn1c(=O)n(-c2ccc(C[C@H](NC(=O)c3cc(F)c(NS(=O)(=O)c4ccc(NC(=O)C(C)(C)C)cc4)cc3F)C(=O)O)cn2)c(=O)c2ccncc21 [Compound A26]
2.3 | Cn1c2c(c(=O)n(-c3ccc(C[C@H](NC(=O)c4cc(F)c(NS(=O)(=O)c5ccc(NC(=O)C(C)(C)C)cc5)cc4F)C(=O)O)cn3)c1=O)CCOC2 [Compound A40]
1.2 | Cn1cnc2c1c(=O)n(-c1ccc(C[C@H](NC(=O)c3cc(F)c(NS(=O)(=O)c4ccc(NC(=O)C(C)(C)C)cc4)cc3F)C(=O)O)cc1)c(=O)n2C [Compound A43]
2.2 | Cn1c2c(c(=O)n(-c3ccc(C[C@H](NC(=O)c4cc(F)c(NS(=O)(=O)c5ccc(NC(=O)C(C)(C)C)cc5)cc4F)C(=O)O)cn3)c1=O)CCCC2 [Compound A52]
5.5 | Cc1c(CO)c(=O)n(-c2ccc(C[C@H](NC(=O)c3cc(F)c(NS(=O)(=O)c4ccc(NC(=O)C(C)(C)C)cc4)cc3F)C(=O)O)cc2)c(=O)n1C [Compound A51]
0.55 | Cn1c(=O)n(-c2ccc(C[C@H](NC(=O)c3cc(F)c(NS(=O)(=O)c4ccc(NC(=O)C5CCOCC5)cc4)cc3F)C(=O)O)cc2)c(=O)c2ccncc21 [Compound A14]
2.3 | Cc1c(C)n(C)c(=O)n(-c2ccc(C[C@H](NC(=O)c3cc(F)c(NS(=O)(=O)c4ccc(NC(=O)C(C)(C)C)nc4)cc3F)C(=O)O)cc2)c1=O [Compound A25]
